Data taken from ChEMBL document CHEMBL5154763, “Discovery of 3H-pyrrolo[2,3-c]quinolines with activity against Mycobacterium tuberculosis by allosteric inhibition of the glutamate-5-kinase enzyme” (Eur J Med Chem, 2022).
pIC50: −log10 of the molar value. ≈ marks a conversion by molar mass, not a printed value. Calls of active or inactive are those of the source. No cut-off for these calls is given here.

Legend:
[1] = test system: Mycobacterium tuberculosis; assay: Antitubercular activity against Mycobacterium tuberculosis H37Rv assessed as inhibition of bacterial growth measured after 8 days by Alamar blue assay; format: functional; conditions: 192 h, time 8 day
Plasmodium falciparum [2] = assay: Antiplasmodial activity against chloroquine-sensitive Plasmodium falciparum 3D7; format: functional, organism-based
Plasmodium falciparum [3] = assay: Antiplasmodial activity against chloroquine-resistant Plasmodium falciparum Dd2; format: functional, organism-based
[4] = Cytotoxicity against human HepG2 cells assessed as inhibition of cell growth at 20 uM measured after 48 hrs by MTT assay relative to control; format: toxicity, cell-based
[5] = Cytotoxicity against human HepG2 cells assessed as inhibition of cell growth at 5 uM measured after 48 hrs by MTT assay relative to control; format: toxicity, cell-based
[6] = target: T1, Glutamate 5-kinase (Escherichia coli) (UniProt P0A7B5); assay: Allosteric inhibition of Escherichia coli G5K assessed as decrease in apparent Vmax for ATP using L-Glu and ATP as substate at 120 uM by NADH-coupled assay; conditions: filed as negative allosteric modulator
T1 sequence (whole entry): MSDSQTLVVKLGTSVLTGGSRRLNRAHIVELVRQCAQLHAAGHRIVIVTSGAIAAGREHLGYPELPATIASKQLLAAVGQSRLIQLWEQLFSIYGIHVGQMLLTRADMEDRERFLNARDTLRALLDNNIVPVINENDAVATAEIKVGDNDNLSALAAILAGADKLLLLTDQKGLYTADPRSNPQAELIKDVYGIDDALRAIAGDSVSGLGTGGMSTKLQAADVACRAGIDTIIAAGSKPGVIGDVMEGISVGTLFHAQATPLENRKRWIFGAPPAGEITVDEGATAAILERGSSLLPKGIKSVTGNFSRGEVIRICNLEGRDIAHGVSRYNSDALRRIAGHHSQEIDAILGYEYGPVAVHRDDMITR

[7] = target: T1, Glutamate 5-kinase (Escherichia coli); assay: Allosteric inhibition of Escherichia coli G5K using 150 mM L-Glu and 10 mM ATP as substate by NADH-coupled assay relative to control; conditions: filed as negative allosteric modulator
[8] = Cytotoxicity against human HepG2 cells assessed as inhibition of cell growth at 10 uM measured after 48 hrs by MTT assay relative to control; format: toxicity, cell-based
[9] = target: T1, Glutamate 5-kinase (Escherichia coli); assay: Allosteric inhibition of Escherichia coli G5K using 10 mM L-Glu and 10 mM ATP as substate by NADH-coupled assay; conditions: filed as negative allosteric modulator
Acetylcholinesterase = Acetylcholinesterase (Electrophorus electricus, UniProt O42275); assay: Inhibition of electric eel AChE using acetylthiocholine iodide as substrate by spectrophotometric analysis
Sequence of Acetylcholinesterase (O42275 whole entry): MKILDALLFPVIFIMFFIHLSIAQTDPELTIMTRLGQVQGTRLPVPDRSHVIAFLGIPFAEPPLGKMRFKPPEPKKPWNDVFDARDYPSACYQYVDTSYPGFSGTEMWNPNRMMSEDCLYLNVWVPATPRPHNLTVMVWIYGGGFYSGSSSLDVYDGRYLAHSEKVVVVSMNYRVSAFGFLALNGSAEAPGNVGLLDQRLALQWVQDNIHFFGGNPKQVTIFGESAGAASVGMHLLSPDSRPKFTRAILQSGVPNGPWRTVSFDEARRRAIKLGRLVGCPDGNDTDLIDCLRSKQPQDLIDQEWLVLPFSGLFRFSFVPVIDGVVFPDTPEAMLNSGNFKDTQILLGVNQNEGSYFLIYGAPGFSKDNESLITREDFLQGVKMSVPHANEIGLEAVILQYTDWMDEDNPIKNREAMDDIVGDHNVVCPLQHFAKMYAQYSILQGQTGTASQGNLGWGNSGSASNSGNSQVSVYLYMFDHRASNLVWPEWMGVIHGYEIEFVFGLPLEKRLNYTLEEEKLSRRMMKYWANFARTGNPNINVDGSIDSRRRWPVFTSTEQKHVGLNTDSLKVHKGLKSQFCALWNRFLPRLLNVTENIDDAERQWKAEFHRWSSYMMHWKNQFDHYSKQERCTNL

[10] = test system: Mycobacterium tuberculosis; assay: Antitubercular activity against Mycobacterium tuberculosis H37Rv assessed as inhibition of bacterial growth; format: functional
[11] = target: T1, Glutamate 5-kinase (Escherichia coli); assay: Allosteric inhibition of Escherichia coli G5K assessed as increase in apparent Km for ATP using L-Glu and ATP as substate at 120 uM by NADH-coupled assay; conditions: filed as negative allosteric modulator
[12] = target: T1, Glutamate 5-kinase (Escherichia coli); assay: Allosteric inhibition of Escherichia coli G5K assessed as enzyme residual activity using 150 mM L-Glu and 10 mM ATP as substate by NADH-coupled assay relative to control
[13] = target: T1, Glutamate 5-kinase (Escherichia coli); assay: Allosteric inhibition of Escherichia coli G5K assessed as enzyme residual activity using 150 mM L-Glu and 2.2 to 8.4 mM ATP as substate by NADH-coupled assay relative to control

Work on `Clc1ccc(-c2nc3ccccc3c3cc[nH]c23)cc1` yielded an MIC [1] of 17.9 µM (≈ 4.99 µg/mL).

Work on `Nc1ncnc2c1ncn2Cc1nc2ccccc2c2cc[nH]c12` yielded a pIC50 (Plasmodium falciparum [2]) of 5.83 and a pIC50 (Plasmodium falciparum [3]) of 5.78.

With `Fc1ccc2c(c1)nc(-c1ccc(Cl)cc1)c1[nH]ccc12` the inhibition at 48 h, 20 µM [4] was 2%, the MIC [1] was 4.2 µM (≈ 1.25 µg/mL) and the inhibition at 48 h, 5 µM [5] was 1%. For the same compound, the inhibition [6] was “Active”, the inhibition [7] was 40% and the inhibition at 48 h, 10 µM [8] was 1%. For the same compound, the I0.5 [9] was 33 µM.

With `Fc1cccc(-c2c[nH]c3c(-c4ccc(Cl)cc4)nc4ccccc4c23)c1` the MIC [1] was 26.8 µM (≈ 9.99 µg/mL).

For `Fc1ccc2c(c1)nc(CCc1ccccc1)c1[nH]ccc12`, the MIC [1] was 34.4 µM (≈ 9.99 µg/mL).

Compound `c1ccc(-c2ccc(-c3nc4ccccc4c4cc[nH]c34)cc2)cc1` has an MIC [1] of 31.2 µM (≈ 10 µg/mL).

Work on `Clc1ccc(-c2nc3cc(Cl)ccc3c3cc[nH]c23)cc1` yielded an MIC [1] of 16 µM (≈ 5.01 µg/mL).

In the case of `CCCCCCCCc1nc2cc(C)ccc2c2cc[nH]c12`, the MIC [1] was 17 µM (≈ 5.01 µg/mL).

In the case of `Cn1ccc2c3ccccc3nc(-c3ccc(Cl)cc3)c21`, the MIC [1] was 17.1 µM (≈ 5.01 µg/mL).

Compound `Fc1ccc2c(c1)nc(-c1ccc(Cl)cc1)c1c2ccn1CC1CC1` has an MIC [1] of 14.2 µM (≈ 4.98 µg/mL).

With `Cc1ccc2c(c1)nc(C1CC1)c1[nH]ccc12` the MIC [1] was 45 µM (≈ 10 µg/mL).

In the case of `Cc1ccc2c(c1)nc(-c1ccc(Cl)cc1)c1[nH]ccc12`, the MIC [1] was 8.5 µM (≈ 2.49 µg/mL).

In the case of `O=C(c1c[nH]c2ccccc12)c1nc2ccccc2c2cc[nH]c12` [MARINOQUINOLINE F], the pIC50 (Acetylcholinesterase) was 5.44.

In the case of `O=C(O)[C@@H]1CCCN1`, the inhibition [7] was 100% and the I0.5 [9] was 2.5 µM.

Work on `Clc1ccc(-c2nc3ccccc3c3c(Cl)c[nH]c23)cc1` yielded an MIC [1] of 16 µM (≈ 5.01 µg/mL).

Compound `COC(=O)c1ccc2c(c1)nc(-c1ccc(Cl)cc1)c1[nH]ccc12` has an MIC [1] of over 500 µM.

For `Clc1ccc(-c2nc3ccccc3c3c(Br)c[nH]c23)cc1`, the MIC [1] was 14 µM (≈ 5.01 µg/mL).

Work on `c1ccc2c(c1)nc(-c1c[nH]c3ccccc13)c1[nH]ccc12` [MARINOQUINOLINE E] yielded a pIC50 (Acetylcholinesterase) of 5.44.

In the case of `CC(C)(C)OC(=O)Nc1ccc(-c2nc3ccccc3c3[nH]c4ccccc4c23)cc1`, the MIC [10] was 6.1 µM (≈ 2.5 µg/mL).

For `Cc1ccc2c(c1)nc(-c1ccc(Cl)cc1)c1c2ccn1C`, the MIC [1] was 16.3 µM (≈ 5 µg/mL).

Work on `c1ccc2c(c1)nc(C1CC1)c1[nH]ccc12` yielded an MIC [1] of 24 µM (≈ 5 µg/mL).

`CCCCCCCCc1nc2ccccc2c2cc[nH]c12` showed an MIC [1] of 17.8 µM (≈ 4.99 µg/mL).

Work on `Oc1ccc(Cc2nc3ccccc3c3cc[nH]c23)cc1` [MARINOQUINOLINE D] yielded a pIC50 (Acetylcholinesterase) of 5.44.

Work on `CCCCCCCCc1nc2cc(F)ccc2c2cc[nH]c12` yielded an MIC [1] of 16.8 µM (≈ 5.01 µg/mL).

With `CCCCCCCCc1nc2cc(OC)ccc2c2cc[nH]c12` the MIC [1] was 16.1 µM (≈ 5 µg/mL).

For `CC(C)Cc1nc2ccccc2c2cc[nH]c12`, the MIC [1] was 22.6 µM (≈ 5.07 µg/mL) and the pIC50 (Acetylcholinesterase) was 5.44.

In the case of `COc1c(N2C[C@@H]3CCCN[C@@H]3C2)c(F)cc2c(=O)c(C(=O)O)cn(C3CC3)c12` [MOXIFLOXACIN], the MIC [1] was 0.15 µM (≈ 0.0602 µg/mL).

For `COc1ccc2c(c1)nc(CCc1ccccc1)c1[nH]ccc12`, the inhibition [11] was “Active”, the Activity [12] was 68% and the inhibition at 48 h, 20 µM [4] was 17%. It also gave an MIC [1] of 4.1 µM (≈ 1.24 µg/mL), an inhibition at 48 h, 5 µM [5] of 1% and an Activity [13] of 66%. It also gave an inhibition at 48 h, 10 µM [8] of 3% and an I0.5 [9] of 22.1 µM.

`COc1ccc2c(c1)nc(Cc1ccccc1)c1[nH]ccc12` gave an MIC [1] of 34.7 µM (≈ 10 µg/mL).

In the case of `Cc1nc2ccccc2c2cc[nH]c12` [MARINOQUINOLINE A], the pIC50 (Acetylcholinesterase) was 5.44.

For `c1ccc(CCc2nc3ccccc3c3cc[nH]c23)cc1`, the MIC [1] was 36.7 µM (≈ 10 µg/mL).

With `FC(F)(F)c1ccc2c(c1)nc(-c1ccc(Cl)cc1)c1[nH]ccc12` the MIC [1] was 14.4 µM (≈ 4.99 µg/mL).

With `c1ccc2c(c1)nc(-c1ccc(N3CCCC3)cc1)c1c3ncccc3[nH]c21` the MIC [10] was 13.7 µM (≈ 4.99 µg/mL).

`c1ccc(Cc2nc3ccccc3c3cc[nH]c23)cc1` [MARINOQUINOLINE C] showed a pIC50 (Acetylcholinesterase) of 5.44.

In the case of `COc1ccc2c(c1)nc(CCc1ccccc1)c1c2ccn1C`, the MIC [1] was 7.9 µM (≈ 2.5 µg/mL).
